Reference: patent US6858589B2, “Methods of and compositions for potentiating the action of agents active on cell wall sites of the susceptible bacteria” (priority 1996, dated 2005)

Tests used:
E. coli NCTC 10418 [1] = assay: E. coli counts after gentamicin profile (peak 4 mg/l, then reconstituted maintained concentration); format: cell-based, Escherichia coli
Description: The aminoglycoside reached a peak concentration of 4 mg/l 30 minutes post-dose and was removed from the E. coli culture by washing. Medium containing 0, 2, 2.5 and 3 mg/l gentamicin was reconstituted and added to the culture at 1 hour after initial exposure to the aminoglycoside (n=6).
(§1) The experimental work described herein involved testing bacterial response while changing aminoglycoside concentrations with time in the test tube, and mimics closely measurements made in man under clinical conditions (Bastone E B, Li S C, Ioannides-Demos L L, Spicer J., McLean A J, “Kill kinetics and regrowth patterns of E. coli exposed to gentamicin concentration-time profiles simulating in vivo bolus or infusion dosing”, Antimicrob Agents Chemother. 37:914-917, 1993).
With each antibiotic, concentration-time profiles similar to those observed in the blood of clinical patients following conventional intravenous dosing of an aminoglycoside (gentamicin) and pump-driven profiles of gentamicin and cephalosporin (cephazolin) were attained. The concentration-time profiles for each drug class have the general form shown in FIG. IA and FIG. IIIA of the accompanying drawings. Additionally a gentamicin profile of the form shown in FIG. IIIA was generated, which reached a peak of 12 mg/l over 3 hours, was maintained at 12 mg/l for a further hour, then was reconstituted to a range of steady-state concentrations (0, 0.5, 1.0, 2.0, 3.0, 4.0 mg/l) to yield the experimental results shown in Table 4. […]

E. coli NCTC 10418 [2] = assay: Kill kinetics and regrowth of E. coli after gentamicin bolus pre-exposure followed by maintained cephazolin; format: cell-based, Escherichia coli; settings: then cephazolin 0 mg/L
Description: In comparative experiments described in the examples herein, a reference strain of Escherichi coli (E. coli NCTC 10418) was exposed to constant concentrations of cephazolin in the culture medium (see FIGS. 1A and IIA).
as §1
The form of this profile is governed in vivo by distribution into tissue from the central circulation. In in vitro experiments, gentamicin was removed (T=0 time) by centrifugation and washing with antibiotic-free medium. The incubation was reconstituted with media containing 0 mg/l, 1 mg/l or 2 mg/l cephazolin (see FIG. IA).
In FIG. IB, it can be seen that the pattern of growth of control organisms (not exposed to antibiotic) is designated by the dotted line ( - - - ), while the growth patterns of test organisms are represented by the solid lines with symbols indicating each type of treatment or test (FIG. IB).

[3] = tested on: blood culture isolate of cMRSA; assay: MIC and MBC for the cMRSA isolate; format: cell-based, Staphylococcus aureus; settings: mecA positive
Description: The student test was used for statistical analysis with a significant level of 0.05, it was performed using the Sigma Stat 32 program (SPSS Inc 1992-1997).

## gentamicin
E. coli NCTC 10418 [1]; peak 4 mg/liter, reconstituted to 3.0 mg/liter at 1 hr, maintained 0 hr (control), 3 hr
  BACTERIAL COUNTS: 3.05 ± 0.33 log ^10 (CFU/mL)
E. coli NCTC 10418 [1]; peak 4 mg/liter, reconstituted to 3.0 mg/liter at 1 hr, maintained 0 hr (control), 11 hr
  BACTERIAL COUNTS: 8.89 ± 0.20 log ^10 (CFU/mL)
E. coli NCTC 10418 [1]; peak 4 mg/liter, reconstituted to 3.0 mg/liter at 1 hr, maintained 0 hr (control), 25 hr
  BACTERIAL COUNTS: 9.07 ± 0.12 log ^10 (CFU/mL)
E. coli NCTC 10418 [1]; peak 4 mg/liter, reconstituted to 3.0 mg/liter at 1 hr, maintained 0 hr (control), 49 hr
  BACTERIAL COUNTS: 9.01 ± 0.06 log ^10 (CFU/mL)
E. coli NCTC 10418 [1]; peak 4 mg/liter, reconstituted to 3.0 mg/liter at 1 hr, maintained 2 hr, 3 hr
  BACTERIAL COUNTS: 0.17 ± 0.41 log ^10 (CFU/mL)
E. coli NCTC 10418 [1]; peak 4 mg/liter, reconstituted to 3.0 mg/liter at 1 hr, maintained 2 hr, 11 hr
  BACTERIAL COUNTS: 0.55 ± 0.61 log ^10 (CFU/mL)
E. coli NCTC 10418 [1]; peak 4 mg/liter, reconstituted to 3.0 mg/liter at 1 hr, maintained 2 hr, 25 hr
  BACTERIAL COUNTS: 7.95 ± 0.54 log ^10 (CFU/mL)
E. coli NCTC 10418 [1]; peak 4 mg/liter, reconstituted to 3.0 mg/liter at 1 hr, maintained 2 hr, 49 hr
  BACTERIAL COUNTS: 8.89 ± 0.19 log ^10 (CFU/mL)
E. coli NCTC 10418 [1]; peak 4 mg/liter, reconstituted to 3.0 mg/liter at 1 hr, maintained 4 hr, 3 hr
  BACTERIAL COUNTS: 0.17 ± 0.41 log ^10 (CFU/mL)
E. coli NCTC 10418 [1]; peak 4 mg/liter, reconstituted to 3.0 mg/liter at 1 hr, maintained 4 hr, 11 hr
  BACTERIAL COUNTS: 0.17 ± 0.41 log ^10 (CFU/mL)
E. coli NCTC 10418 [1]; peak 4 mg/liter, reconstituted to 3.0 mg/liter at 1 hr, maintained 4 hr, 25 hr
  BACTERIAL COUNTS: 5.18 ± 4.02 log ^10 (CFU/mL)
E. coli NCTC 10418 [1]; peak 4 mg/liter, reconstituted to 3.0 mg/liter at 1 hr, maintained 4 hr, 49 hr
  BACTERIAL COUNTS: 5.99 ± 4.64 log ^10 (CFU/mL)
E. coli NCTC 10418 [1]; peak 4 mg/liter, reconstituted to 3.0 mg/liter at 1 hr, maintained 8 hr, 3 hr
  BACTERIAL COUNTS: 0.33 ± 0.52 log ^10 (CFU/mL)
E. coli NCTC 10418 [1]; peak 4 mg/liter, reconstituted to 3.0 mg/liter at 1 hr, maintained 8 hr, 11 hr
  BACTERIAL COUNTS: NGD
E. coli NCTC 10418 [1]; peak 4 mg/liter, reconstituted to 3.0 mg/liter at 1 hr, maintained 8 hr, 25 hr
  BACTERIAL COUNTS: NGD
E. coli NCTC 10418 [1]; peak 4 mg/liter, reconstituted to 3.0 mg/liter at 1 hr, maintained 8 hr, 49 hr
  BACTERIAL COUNTS: NGD
E. coli NCTC 10418 [1]; post-distribution peak 4 mg/liter, reconstituted at 1 hr to 0 mg/liter, 3 hr
  BACTERIAL COUNTS: 3.96 ± 0.70 log ^10 (CFU/mL)
E. coli NCTC 10418 [1]; post-distribution peak 4 mg/liter, reconstituted at 1 hr to 0 mg/liter, 11 hr
  BACTERIAL COUNTS: 9.24 ± 0.34 log ^10 (CFU/mL)
E. coli NCTC 10418 [1]; post-distribution peak 4 mg/liter, reconstituted at 1 hr to 0 mg/liter, 25 hr
  BACTERIAL COUNTS: 9.15 ± 0.17 log ^10 (CFU/mL)
E. coli NCTC 10418 [1]; post-distribution peak 4 mg/liter, reconstituted at 1 hr to 0 mg/liter, 49 hr
  BACTERIAL COUNTS: 8.93 ± 0.12 log ^10 (CFU/mL)
E. coli NCTC 10418 [1]; post-distribution peak 4 mg/liter, reconstituted at 1 hr to 2.0 mg/liter, 3 hr
  BACTERIAL COUNTS: 1.92 ± 1.21 log ^10 (CFU/mL)
E. coli NCTC 10418 [1]; post-distribution peak 4 mg/liter, reconstituted at 1 hr to 2.0 mg/liter, 11 hr
  BACTERIAL COUNTS: 7.76 ± 1.06 log ^10 (CFU/mL)
E. coli NCTC 10418 [1]; post-distribution peak 4 mg/liter, reconstituted at 1 hr to 2.0 mg/liter, 25 hr
  BACTERIAL COUNTS: 8.69 ± 0.63 log ^10 (CFU/mL)
E. coli NCTC 10418 [1]; post-distribution peak 4 mg/liter, reconstituted at 1 hr to 2.0 mg/liter, 49 hr
  BACTERIAL COUNTS: 9.34 ± 0.27 log ^10 (CFU/mL)
E. coli NCTC 10418 [1]; post-distribution peak 4 mg/liter, reconstituted at 1 hr to 2.5 mg/liter, 3 hr
  BACTERIAL COUNTS: 0.33 ± 0.52 log ^10 (CFU/mL)
E. coli NCTC 10418 [1]; post-distribution peak 4 mg/liter, reconstituted at 1 hr to 2.5 mg/liter, 11 hr
  BACTERIAL COUNTS: 0.33 ± 0.52 log ^10 (CFU/mL)
E. coli NCTC 10418 [1]; post-distribution peak 4 mg/liter, reconstituted at 1 hr to 2.5 mg/liter, 25 hr
  BACTERIAL COUNTS: 4.85 ± 3.82 log ^10 (CFU/mL)
E. coli NCTC 10418 [1]; post-distribution peak 4 mg/liter, reconstituted at 1 hr to 2.5 mg/liter, 49 hr
  BACTERIAL COUNTS: 5.98 ± 4.63 log ^10 (CFU/mL)
E. coli NCTC 10418 [1]; post-distribution peak 4 mg/liter, reconstituted at 1 hr to 3.0 mg/liter, 3 hr
  BACTERIAL COUNTS: 0.33 ± 0.52 log ^10 (CFU/mL)
E. coli NCTC 10418 [1]; post-distribution peak 4 mg/liter, reconstituted at 1 hr to 3.0 mg/liter, 11 hr
  BACTERIAL COUNTS: NGD
E. coli NCTC 10418 [1]; post-distribution peak 4 mg/liter, reconstituted at 1 hr to 3.0 mg/liter, 25 hr
  BACTERIAL COUNTS: NGD
E. coli NCTC 10418 [1]; post-distribution peak 4 mg/liter, reconstituted at 1 hr to 3.0 mg/liter, 49 hr
  BACTERIAL COUNTS: NGD
E. coli NCTC 10418 [2]; 8 mg/L bolus gentamicin, 2 h
  BACTERIAL COUNTS: 1.32 ± 0.69 log10 cfu/mL
E. coli NCTC 10418 [2]; 8 mg/L bolus gentamicin, 8 h
  BACTERIAL COUNTS: 4.91 ± 0.70 log10 cfu/mL
E. coli NCTC 10418 [2]; 8 mg/L bolus gentamicin, 24 h
  BACTERIAL COUNTS: 8.88 ± 0.11 log10 cfu/mL
E. coli NCTC 10418 [2]; 8 mg/L bolus gentamicin, −0.5 h
  BACTERIAL COUNTS: 5.87 ± 0.35 log10 cfu/mL
E. coli NCTC 10418 [2]; 12 mg/L bolus gentamicin, 2 h
  BACTERIAL COUNTS: 0.69 ± 0.87 log10 cfu/mL
E. coli NCTC 10418 [2]; 12 mg/L bolus gentamicin, 8 h
  BACTERIAL COUNTS: 4.54 ± 1.15 log10 cfu/mL
E. coli NCTC 10418 [2]; 12 mg/L bolus gentamicin, 24 h
  BACTERIAL COUNTS: 8.80 ± 0.05 log10 cfu/mL
E. coli NCTC 10418 [2]; 12 mg/L bolus gentamicin, −0.5 h
  BACTERIAL COUNTS: 6.10 ± 0.26 log10 cfu/mL
E. coli NCTC 10418 [2]; 16 mg/L bolus gentamicin, 2 h
  BACTERIAL COUNTS: 0.48 ± 0.76 log10 cfu/mL
E. coli NCTC 10418 [2]; 16 mg/L bolus gentamicin, 8 h
  BACTERIAL COUNTS: 3.85 ± 1.24 log10 cfu/mL
E. coli NCTC 10418 [2]; 16 mg/L bolus gentamicin, 24 h
  BACTERIAL COUNTS: 8.79 ± 0.05 log10 cfu/mL
E. coli NCTC 10418 [2]; 16 mg/L bolus gentamicin, −0.5 h
  BACTERIAL COUNTS: 5.85 ± 0.050 log10 cfu/mL
E. coli NCTC 10418 [2]; 20 mg/L bolus gentamicin, 2 h
  BACTERIAL COUNTS: NGD
E. coli NCTC 10418 [2]; 20 mg/L bolus gentamicin, 8 h
  BACTERIAL COUNTS: 3.15 ± 0.734 log10 cfu/mL
E. coli NCTC 10418 [2]; 20 mg/L bolus gentamicin, 24 h
  BACTERIAL COUNTS: 8.81 ± 0.04 log10 cfu/mL
E. coli NCTC 10418 [2]; 20 mg/L bolus gentamicin, −0.5 h
  BACTERIAL COUNTS: 5.89 ± 0.03 log10 cfu/mL
[3]
  MBC: 4 µg/mL
  MIC: 1 µg/mL
